Measurements taken from ChEMBL document CHEMBL4002628, “Benzenesulphonamide inhibitors of the cytolytic protein perforin” (Bioorg Med Chem Lett, 2017).
Calls of active or inactive are those of the source. The calls are words filed in the database; no cut-off is given here.

Tests used:
[1] = target: T1, Perforin-1 (Homo sapiens) (UniProt P14222); experiment: Inhibition of recombinant perforin (unknown origin) assessed as decrease in lysis of 51Cr-labelled human Jurkat cells by measuring 51Cr release at 20 uM preincubated for 30 mins followed by cell line addition measured after 4 hrs in presence of 10% mouse serum by gamma counting method relative to control
T1 sequence (whole entry): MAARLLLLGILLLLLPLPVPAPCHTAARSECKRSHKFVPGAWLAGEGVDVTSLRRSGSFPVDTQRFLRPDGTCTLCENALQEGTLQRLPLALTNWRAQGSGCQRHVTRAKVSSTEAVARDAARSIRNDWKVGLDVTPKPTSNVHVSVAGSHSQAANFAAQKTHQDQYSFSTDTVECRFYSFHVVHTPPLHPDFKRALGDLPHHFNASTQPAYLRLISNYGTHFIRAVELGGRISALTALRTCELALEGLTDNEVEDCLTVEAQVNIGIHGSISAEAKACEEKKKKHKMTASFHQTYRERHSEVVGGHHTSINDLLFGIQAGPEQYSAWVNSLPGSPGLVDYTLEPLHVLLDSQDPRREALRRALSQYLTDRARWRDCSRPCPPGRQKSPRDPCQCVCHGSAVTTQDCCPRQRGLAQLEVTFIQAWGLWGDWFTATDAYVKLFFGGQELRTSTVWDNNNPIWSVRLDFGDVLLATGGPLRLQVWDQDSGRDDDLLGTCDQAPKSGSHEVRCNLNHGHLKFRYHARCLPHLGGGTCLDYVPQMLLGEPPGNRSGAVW

[2] = Inhibition of N-terminal His-tagged recombinant human p85alpha expressed in baculovirus infected insect Sf21 cells/recombinant wild type mouse p110alpha using phosphatidylinositol as substrate in presence of [33P]-ATP

inhibition [1] | SMILES | IC50 [2]
Active | O=C1NCc2ccc(-c3ccc(-c4cncc(NS(=O)(=O)c5ccc(F)cc5F)c4)s3)cc21 | 
Active | O=C1NCc2cc(-c3ccc(-c4cncc(NS(=O)(=O)c5ccc(F)cc5F)c4)s3)ccc21 | 
Active | CN1Cc2cc(-c3ccc(-c4cncc(NS(=O)(=O)c5ccc(F)cc5F)c4)s3)ccc2C1=O | > 6.25 µM
Active | O=C1Cc2cc(-c3ccc(-c4cncc(NS(=O)(=O)c5ccc(F)cc5F)c4)s3)ccc2N1 | 
